ChEMBL document CHEMBL1201862, “PubChem BioAssay data set” (2004)
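Method: 48-hour compound exposure of cells in 96-well plates, five concentrations, linear interpolation of endpoints. Abbreviation: GI50, concentration required for 50% inhibition of growth.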 Active and inactive are the calls of the source. Cut-off read from the data, not from the text of the source: active = GI50 up to about 1.1 µM and inactive = higher.

Assays:
Experiment in all cases: NCI anticancer screen, dose series, 48 h
Malme-3M = system: Malme-3M
SNB-19 = system: SNB-19
K562 = system: K562
A549 = system: A549
OVCAR-4 = system: OVCAR-4
HCT-116 = system: HCT-116
DU-145 = system: DU-145
LOX IMVI = system: LOX IMVI
OVCAR-5 = system: OVCAR-5
M14 = system: M14
HL-60 = system: HL-60
MCF7 = system: MCF7
NCI-H226 = system: NCI-H226
SK-MEL-5 = system: SK-MEL-5
TK-10 = system: TK-10
MDA-MB-231 = system: MDA-MB-231
MDA-MB-435 = system: MDA-MB-435
KM12 = system: KM12
HOP-92 = system: HOP-92
MDA-N = system: MDA-N

Measured: GI50

CCSc1nc(=S)n(-c2ccccc2)c(C)c1C(C)=O
inactive: Malme-3M > 100 µM | SNB-19 > 94.6 µM | K562 > 100 µM | A549 > 100 µM | OVCAR-4 > 100 µM | HCT-116 > 100 µM | DU-145 > 100 µM | LOX IMVI > 100 µM | OVCAR-5 > 100 µM | M14 > 100 µM | HL-60 > 100 µM | MCF7 > 100 µM | NCI-H226 > 100 µM | SK-MEL-5 > 100 µM | TK-10 > 100 µM | MDA-MB-231 > 100 µM | MDA-MB-435 > 100 µM | KM12 > 100 µM | HOP-92 > 100 µM

Cc1ccc(CCCC(=O)O)cc1C
inactive: Malme-3M > 100 µM | SNB-19 > 100 µM | K562 > 100 µM | A549 > 100 µM | OVCAR-4 > 100 µM | HCT-116 > 100 µM | DU-145 > 100 µM | LOX IMVI > 100 µM | OVCAR-5 > 100 µM | M14 > 100 µM | HL-60 > 100 µM | NCI-H226 > 100 µM | SK-MEL-5 > 100 µM | MDA-N > 100 µM | TK-10 > 100 µM | MDA-MB-231 > 100 µM | MDA-MB-435 > 100 µM | KM12 > 100 µM | HOP-92 > 100 µM

N/N=C(\C(=O)Nc1ccc([N+](=O)[O-])cc1)C(C1=Nc2cc([N+](=O)[O-])ccc2NC1)[N+](=O)[O-] (configuration not stated)
inactive: Malme-3M > 100 µM | SNB-19 > 100 µM | K562 > 100 µM | A549 55.8 µM | OVCAR-4 > 100 µM | HCT-116 79.1 µM | LOX IMVI 74.8 µM | OVCAR-5 > 100 µM | M14 > 100 µM | HL-60 > 100 µM | MCF7 44.3 µM | NCI-H226 > 100 µM | SK-MEL-5 74.1 µM | MDA-N > 100 µM | TK-10 > 100 µM | MDA-MB-231 > 100 µM | MDA-MB-435 88.3 µM | KM12 32 µM | HOP-92 > 100 µM

O=C1CSc2ccnc(=O)n21
inactive: Malme-3M > 100 µM | SNB-19 > 100 µM | A549 > 100 µM | OVCAR-4 > 100 µM | HCT-116 > 100 µM | DU-145 > 100 µM | OVCAR-5 > 100 µM | M14 > 100 µM | HL-60 > 100 µM | MCF7 > 100 µM | SK-MEL-5 > 100 µM | MDA-N > 100 µM | TK-10 > 100 µM | MDA-MB-435 > 100 µM | HOP-92 > 100 µM

COc1cc([C@@H]2c3cc4c(cc3[C@@H](c3c(O)cc(O)c5c3O[C@H](c3ccc(O)c(O)c3)[C@@H](O)C5)[C@H]3COC(=O)[C@H]23)OCO4)cc(OC)c1OC
inactive: Malme-3M > 100 µM | SNB-19 38.4 µM | K562 9.31 µM | A549 29.9 µM | OVCAR-4 1.8 µM | HCT-116 21.1 µM | DU-145 1.73 µM | LOX IMVI 25.6 µM | OVCAR-5 27.2 µM | M14 25.1 µM | HL-60 38.8 µM | MCF7 1.72 µM | SK-MEL-5 17 µM | TK-10 1.79 µM | MDA-MB-231 1.67 µM | MDA-MB-435 1.75 µM | KM12 1.76 µM | HOP-92 > 100 µM

COc1cc(C2c3c(ccc4ccccc34)C(=O)C3CCC(=O)N32)cc(OC)c1O (configuration not stated)
inactive: SNB-19 > 25 µM | K562 > 25 µM | A549 > 25 µM | OVCAR-4 > 25 µM | HCT-116 > 25 µM | DU-145 > 25 µM | OVCAR-5 > 25 µM | M14 > 25 µM | HL-60 > 25 µM | MCF7 > 25 µM | NCI-H226 > 25 µM | MDA-N > 25 µM | MDA-MB-435 > 25 µM | KM12 > 25 µM | HOP-92 > 25 µM

O=C(O)CN1CCN2CCOCCN(CC1)CCN(CC(=O)O)CC2
inactive: Malme-3M > 100 µM | SNB-19 > 100 µM | K562 > 100 µM | A549 > 100 µM | OVCAR-4 > 100 µM | HCT-116 > 100 µM | DU-145 > 100 µM | LOX IMVI > 100 µM | OVCAR-5 > 100 µM | M14 > 100 µM | HL-60 > 53.3 µM | MCF7 > 100 µM | NCI-H226 > 100 µM | SK-MEL-5 > 100 µM | TK-10 > 100 µM | MDA-MB-231 > 100 µM | MDA-MB-435 > 100 µM | KM12 > 100 µM | HOP-92 > 100 µM

O=C(O)CCCc1ccc2c(c1)CC1(C2)Cc2ccc(CCCC(=O)O)cc2C1
inactive: Malme-3M > 100 µM | K562 > 100 µM | A549 > 100 µM | OVCAR-4 > 100 µM | HCT-116 > 100 µM | LOX IMVI > 100 µM | OVCAR-5 > 100 µM | M14 > 100 µM | HL-60 > 100 µM | MCF7 > 100 µM | NCI-H226 > 100 µM | SK-MEL-5 54 µM | MDA-N > 100 µM | TK-10 > 100 µM | MDA-MB-231 > 100 µM | MDA-MB-435 > 100 µM | KM12 > 100 µM | HOP-92 > 100 µM

COc1ccc2c(c1)CC[C@@H]1[C@@H]2CC[C@]2(C)C(=O)/C(=C/c3ccc(OC)c(OC)c3)C[C@@H]12
inactive: Malme-3M > 100 µM | SNB-19 > 100 µM | A549 > 100 µM | OVCAR-4 > 100 µM | HCT-116 65.9 µM | DU-145 > 100 µM | OVCAR-5 > 100 µM | M14 > 100 µM | HL-60 > 100 µM | MCF7 > 100 µM | SK-MEL-5 > 100 µM | TK-10 > 100 µM | MDA-MB-231 > 100 µM | MDA-MB-435 > 100 µM | KM12 > 100 µM | HOP-92 97.5 µM

COc1cc(Nc2nc3ccccc3nc2C(=O)O)cc(OC)c1OC
inactive: Malme-3M > 100 µM | SNB-19 70.6 µM | K562 > 100 µM | A549 > 100 µM | HCT-116 > 100 µM | DU-145 > 100 µM | LOX IMVI 53 µM | OVCAR-5 > 100 µM | M14 73.6 µM | HL-60 > 100 µM | NCI-H226 > 100 µM | SK-MEL-5 49.2 µM | MDA-N > 100 µM | TK-10 16.3 µM | MDA-MB-231 16.4 µM | MDA-MB-435 > 100 µM | KM12 > 100 µM | HOP-92 25.9 µM

Cc1cccc(Nc2cn(CCOc3ccccc3)c(=O)n(CCOc3ccccc3)c2=O)c1
inactive: SNB-19 > 100 µM | K562 > 100 µM | A549 > 100 µM | OVCAR-4 > 100 µM | HCT-116 > 100 µM | DU-145 > 100 µM | LOX IMVI > 100 µM | OVCAR-5 > 100 µM | M14 > 100 µM | MCF7 > 100 µM | SK-MEL-5 > 100 µM | MDA-N > 100 µM | MDA-MB-435 > 100 µM | KM12 > 100 µM | HOP-92 56.2 µM

Cn1c(-c2ccccc2)cc(-c2ccc3c(c2)OCO3)c1-c1cccs1
inactive: SNB-19 > 100 µM | K562 > 100 µM | A549 > 100 µM | OVCAR-4 > 100 µM | HCT-116 96.8 µM | DU-145 > 100 µM | LOX IMVI > 100 µM | OVCAR-5 > 100 µM | M14 > 100 µM | HL-60 > 100 µM | MCF7 > 100 µM | NCI-H226 > 100 µM | SK-MEL-5 > 100 µM | MDA-N > 100 µM | TK-10 > 100 µM | MDA-MB-435 > 100 µM | KM12 > 100 µM | HOP-92 > 100 µM

CC(C)(Oc1ccc(Cl)cc1)C(=O)N(C(=O)N1CCC(c2ccccc2)CC1)c1ccccc1
inactive: Malme-3M 25.4 µM | SNB-19 > 100 µM | K562 4.2 µM | A549 34.5 µM | OVCAR-4 > 100 µM | HCT-116 4.78 µM | DU-145 > 100 µM | LOX IMVI 22.9 µM | OVCAR-5 > 100 µM | M14 65 µM | HL-60 1.6 µM | MCF7 23.7 µM | NCI-H226 > 61 µM | SK-MEL-5 4.94 µM | TK-10 > 30.1 µM | MDA-MB-231 > 100 µM | MDA-MB-435 > 100 µM | KM12 15.5 µM | HOP-92 > 100 µM

COc1nc2c(c(=O)[nH]1)N=C(c1ccccc1)CC(c1ccccc1)N2 (configuration not stated)
inactive: Malme-3M 72.9 µM | SNB-19 > 100 µM | K562 25.3 µM | A549 55.6 µM | OVCAR-4 26.9 µM | HCT-116 33.8 µM | DU-145 82 µM | LOX IMVI 44.8 µM | OVCAR-5 > 100 µM | M14 34.3 µM | HL-60 > 10 µM | MCF7 42.2 µM | NCI-H226 72.6 µM | SK-MEL-5 38.3 µM | MDA-MB-231 33 µM | MDA-MB-435 59.7 µM | KM12 30.7 µM | HOP-92 80.9 µM

Cc1ccc(S(=O)(=O)n2cnc(CC(NC(=O)C3CCC(=O)N3C(=O)OCc3ccccc3)C(=O)N3CCCC3C(=O)NN)c2)cc1 (configuration not stated)
inactive: Malme-3M > 100 µM | SNB-19 48.8 µM | K562 > 100 µM | A549 > 100 µM | HCT-116 > 100 µM | OVCAR-5 > 100 µM | M14 > 100 µM | HL-60 > 100 µM | MCF7 > 100 µM | NCI-H226 24.8 µM | SK-MEL-5 > 100 µM | MDA-N > 100 µM | TK-10 > 100 µM | MDA-MB-231 > 100 µM | KM12 > 100 µM | HOP-92 > 100 µM
